{"source": "patent US20120165384A1", "about": "“INHIBITION OF HISTONE ACETYLTRANSFERASES BY CTK7A AND METHODS THEREOF” (JAWAHARLAL NEHRU CENTRE FOR ADVANCED SCIENTIFIC RESEARCH, priority 2009, published 2012)", "key": {"[1]": {"target": "T1, PCAF (Homo sapiens, UniProt Q92831)", "T1 construct": "Recombinant baculovirus expressing full-length FLAG-tagged CARM1,CBP and PCAF; FLAG; made in house; host or cells: baculovirus-infected Sf21 cells", "T1 sequence (Q92831 whole entry, species assumed)": "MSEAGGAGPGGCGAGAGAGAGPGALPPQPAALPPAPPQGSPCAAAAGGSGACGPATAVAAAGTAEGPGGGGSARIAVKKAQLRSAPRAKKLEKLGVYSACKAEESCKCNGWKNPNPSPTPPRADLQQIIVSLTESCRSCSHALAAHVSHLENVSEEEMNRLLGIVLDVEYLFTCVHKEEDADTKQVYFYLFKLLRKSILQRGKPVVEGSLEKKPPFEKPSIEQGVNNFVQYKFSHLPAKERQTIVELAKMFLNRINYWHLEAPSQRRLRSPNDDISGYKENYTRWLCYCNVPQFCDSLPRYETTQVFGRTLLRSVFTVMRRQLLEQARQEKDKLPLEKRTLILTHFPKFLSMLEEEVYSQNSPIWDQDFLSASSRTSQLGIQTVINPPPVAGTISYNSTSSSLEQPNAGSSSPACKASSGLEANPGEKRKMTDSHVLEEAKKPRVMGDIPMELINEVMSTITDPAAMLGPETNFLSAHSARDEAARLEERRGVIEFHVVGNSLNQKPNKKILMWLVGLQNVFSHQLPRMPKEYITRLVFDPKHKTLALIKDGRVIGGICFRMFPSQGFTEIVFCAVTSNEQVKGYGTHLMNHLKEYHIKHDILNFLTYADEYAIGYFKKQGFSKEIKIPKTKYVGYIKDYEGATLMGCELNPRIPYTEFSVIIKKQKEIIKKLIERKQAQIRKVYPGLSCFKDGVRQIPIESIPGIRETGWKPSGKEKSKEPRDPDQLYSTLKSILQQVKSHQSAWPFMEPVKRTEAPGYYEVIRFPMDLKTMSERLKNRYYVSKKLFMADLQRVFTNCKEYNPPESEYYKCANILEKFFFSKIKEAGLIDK", "assay": "HAT assay with recombinant PCAF", "type": "biochemical", "experimental": "(§1) Recombinant baculovirus expressing full-length FLAG-tagged CARM1,CBP and PCAF were purified by immunoaffinity chromatography using M2-agarose beads followed by elution with FLAG peptide. Baculovirus-expressed full-length hexahistidine-tagged p300, and G9a were purified using Ni-NTA affinity chromatography as described previously^30.\n(§2) HAT gel fluorography/autoradiography assays were performed as previously reported^30. Kinetic analysis of p300 HAT inhibition was performed as reported earlier^31 in the presence of (0, 30 and 50 μM) CTK7A. The obtained values were plotted as a lineweaver burk plot using Graphpad Prism software. For p300 Autoacetylation assay, reactions of p300 full length (80 ng) were carried out in HAT assay buffer at 30° C. for 10 minutes with or without the protein (NPM1) followed by addition of 1 μl of 4.7 Ci/mmol [^3H] acetyl CoA (NEN-PerkinElmer) and were further incubated for another 10 min in a 30 μl reaction. GAPDH was used as positive control. The radio-labeled acetylated p300 were processed by fluorography followed by autoradiography."}, "[2]": {"target": "p300 (Homo sapiens, UniProt Q09472)", "sequence (Q09472 whole entry, species assumed)": "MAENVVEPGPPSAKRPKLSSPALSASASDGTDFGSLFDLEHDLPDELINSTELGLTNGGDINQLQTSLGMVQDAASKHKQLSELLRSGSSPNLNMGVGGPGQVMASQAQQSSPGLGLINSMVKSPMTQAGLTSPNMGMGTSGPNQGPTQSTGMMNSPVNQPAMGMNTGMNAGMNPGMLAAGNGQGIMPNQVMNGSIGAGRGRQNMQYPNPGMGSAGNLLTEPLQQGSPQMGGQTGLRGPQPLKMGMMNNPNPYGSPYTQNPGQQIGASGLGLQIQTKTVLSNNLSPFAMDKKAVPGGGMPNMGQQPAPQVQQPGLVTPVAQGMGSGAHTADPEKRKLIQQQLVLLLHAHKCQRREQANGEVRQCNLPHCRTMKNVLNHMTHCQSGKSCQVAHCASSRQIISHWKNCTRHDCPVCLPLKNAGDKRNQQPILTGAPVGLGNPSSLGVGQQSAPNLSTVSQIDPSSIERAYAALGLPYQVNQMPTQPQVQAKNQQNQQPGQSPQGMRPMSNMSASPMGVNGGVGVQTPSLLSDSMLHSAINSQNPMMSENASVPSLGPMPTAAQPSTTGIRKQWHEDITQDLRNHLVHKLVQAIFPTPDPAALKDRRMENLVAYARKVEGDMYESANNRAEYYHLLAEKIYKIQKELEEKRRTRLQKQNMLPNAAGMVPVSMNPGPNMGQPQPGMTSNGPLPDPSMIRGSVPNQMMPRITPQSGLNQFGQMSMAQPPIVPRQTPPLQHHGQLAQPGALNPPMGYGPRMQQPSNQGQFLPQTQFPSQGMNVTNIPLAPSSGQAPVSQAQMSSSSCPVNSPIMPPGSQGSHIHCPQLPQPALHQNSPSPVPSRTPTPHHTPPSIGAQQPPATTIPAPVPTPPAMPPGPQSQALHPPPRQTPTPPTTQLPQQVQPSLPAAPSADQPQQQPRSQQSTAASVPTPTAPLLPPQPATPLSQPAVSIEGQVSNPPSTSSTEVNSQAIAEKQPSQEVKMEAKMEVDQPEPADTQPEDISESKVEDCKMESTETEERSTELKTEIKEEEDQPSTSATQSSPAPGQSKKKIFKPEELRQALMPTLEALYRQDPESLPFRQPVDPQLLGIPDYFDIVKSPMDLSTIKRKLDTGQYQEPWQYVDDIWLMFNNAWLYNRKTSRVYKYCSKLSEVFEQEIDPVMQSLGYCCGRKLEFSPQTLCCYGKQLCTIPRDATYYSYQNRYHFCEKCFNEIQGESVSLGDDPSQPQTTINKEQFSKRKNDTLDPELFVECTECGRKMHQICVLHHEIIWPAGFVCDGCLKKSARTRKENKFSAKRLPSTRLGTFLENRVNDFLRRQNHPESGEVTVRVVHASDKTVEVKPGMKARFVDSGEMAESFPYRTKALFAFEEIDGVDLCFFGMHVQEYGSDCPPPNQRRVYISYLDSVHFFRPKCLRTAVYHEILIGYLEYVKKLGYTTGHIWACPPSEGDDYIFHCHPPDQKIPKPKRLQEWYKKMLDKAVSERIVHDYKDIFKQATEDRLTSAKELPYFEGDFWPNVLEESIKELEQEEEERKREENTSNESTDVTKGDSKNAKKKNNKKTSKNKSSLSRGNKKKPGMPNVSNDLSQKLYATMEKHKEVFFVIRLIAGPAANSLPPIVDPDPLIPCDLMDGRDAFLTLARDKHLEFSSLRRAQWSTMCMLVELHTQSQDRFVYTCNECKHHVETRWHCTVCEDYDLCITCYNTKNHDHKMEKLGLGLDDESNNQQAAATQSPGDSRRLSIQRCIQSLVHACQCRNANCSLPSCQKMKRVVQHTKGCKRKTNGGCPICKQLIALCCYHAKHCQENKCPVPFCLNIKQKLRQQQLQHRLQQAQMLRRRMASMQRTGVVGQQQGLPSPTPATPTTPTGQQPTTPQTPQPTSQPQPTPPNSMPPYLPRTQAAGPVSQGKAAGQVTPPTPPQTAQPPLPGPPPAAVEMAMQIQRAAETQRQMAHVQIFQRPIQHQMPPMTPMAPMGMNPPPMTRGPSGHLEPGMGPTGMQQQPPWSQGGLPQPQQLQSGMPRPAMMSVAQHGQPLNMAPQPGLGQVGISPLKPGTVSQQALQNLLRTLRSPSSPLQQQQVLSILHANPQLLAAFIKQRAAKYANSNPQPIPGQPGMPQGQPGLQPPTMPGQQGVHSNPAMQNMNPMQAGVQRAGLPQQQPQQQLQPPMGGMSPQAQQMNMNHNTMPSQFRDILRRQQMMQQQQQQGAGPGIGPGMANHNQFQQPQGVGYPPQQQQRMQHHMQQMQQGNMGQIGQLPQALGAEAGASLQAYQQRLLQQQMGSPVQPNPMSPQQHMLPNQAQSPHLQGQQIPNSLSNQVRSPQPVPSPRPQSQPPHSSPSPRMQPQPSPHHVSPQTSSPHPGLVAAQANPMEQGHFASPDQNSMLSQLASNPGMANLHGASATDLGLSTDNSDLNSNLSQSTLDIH", "assay": "HAT assay with recombinant p300", "type": "biochemical", "design": "hexahistidine; made in house; host or cells: baculovirus-infected Sf21 cells", "experimental": "as §1, §2"}, "[3]": {"tested_on": "human melanocytes", "settings": "earlier report, cited from earlier work"}, "[4]": {"tested_on": "NPM1 and GAPDH expression in KB cells", "assay": "NPM1 and GAPDH expression in treated KB cells", "type": "cell-based", "settings": "24 h", "experimental": "(§3) KB cells were maintained in Dullbecco's modified Eagle medium (DMEM) with 10% fetal bovine serum (FBS) at 37° C. with a 5% CO2 atmosphere in a humidified incubator. For IFNγ and GSNO treatment, KB cells were incubated in the presence of IFNγ 10 ng ml^−1 for an additional 16 h and 24 h respectively. Immunofluorescent staining of cells for confocal microscopy was carried out as described previously^30. CTK7A treatment was done for 24 h followed by acid extraction of histone and immunoblotting as per standard protocol^31. For whole cell extract preparation RIPA buffer (Tris-HCl 50 mM, pH 7.4 NP-40 1%, Na-deoxycholate 0.25%, NaCl 150 mM, EDTA 1 mM, Phenylmethylsulfonyl fluoride (PMSF), 1 mM Na3VO4, 1 mM NaF and protease inhibitor cocktail) was used."}, "[5]": {"tested_on": "NPM1 and GAPDH acetylation in KB cells", "assay": "NPM1 and GAPDH acetylation in KB cells (anti-acetyl lysine immunoprecipitation, western blotting)", "type": "cell-based", "experimental": "as §3, with “protocol^31.” for “protocol^31. For whole cell extract preparation RIPA buffer (Tris-HCl 50 mM, pH 7.4 NP-40 1%, Na-deoxycholate 0.25%, NaCl 150 mM, EDTA 1 mM, Phenylmethylsulfonyl fluoride (PMSF), 1 mM Na3VO4, 1 mM NaF and protease inhibitor cocktail) was used.”\nWhole cell extract were prepared using RIPA buffer as mentioned above. The pre-blocked protein-G sepharose-bound antibody (4 μg) was incubated with 500 μg whole cell lysate overnight at 4° C. After extensive washes, bead-bound protein were analysed by western blotting with indicated antibodies. For HDAC inhibitors treatment, 5 mM sodium butyrate, 5 mM nicotiamide and 100 ng ml^−1 TSA were added 10 h before cells were harvest^36."}, "[6]": {"tested_on": "Histone H3K14 acetylation in KB cells", "assay": "H3K14 acetylation in GSNO treated KB cells (western blotting)", "type": "cell-based", "settings": "concentration dependent", "experimental": "as §3"}, "[7]": {"target": "T2, full length p300 (Homo sapiens, UniProt Q09472)", "T2 construct": "hexahistidine; made in house; host or cells: baculovirus-infected Sf21 cells", "T2 sequence (Q09472 whole entry, species assumed)": "as above", "assay": "p300 autoacetylation assay in vitro (3H-acetyl CoA, fluorography/autoradiography)", "type": "biochemical", "settings": "dose dependent; 3H-acetyl-CoA", "experimental": "as §2"}, "[8]": {"assay": "Solubility test in water", "type": "physicochemical", "experimental": "To a solution of curcumin in methanol (10 mg, 0.027 Mmol) […]. After incubation for 24 h, the solvent was evaporated in vacuum. The residue […] was purified with repeated recrystallization and filtration method using TLC (CHCl3/MeOH=4:1; Rf=0.5). This gave CTK7 as a dark orange powder (7.18 mg, 55%) which was analyzed by H^1 NMR, Melting point test, Solubility test and ESI-MS.\nTo a solution of CTK7 in methanol (50 mg, 0.1031 mmol), (10 ml) of Sodium ethoxide was added ([…], 0.1175 mmol) and the reaction mixture was stirred at room temperature for 90 minutes. The solvent was evaporated in vacuum and the residue was washed with hexane, diethyl ether and ethyl acetate. Product was confirmed through H^1 NMR, Solubility test, melting point."}, "[9]": {"tested_on": "GAPDH localisation in KB cells", "assay": "GAPDH nuclear translocation in KB cells (immunofluorescence)", "type": "cell-based", "settings": "10 ng ml−1, 16 h", "experimental": "as §3"}}}
{"molecule": "COc1cc(/C=C/C(=O)CC(=O)/C=C/c2ccc(O)c(OC)c2)ccc1O", "note": "[curcumin, reference compound]", "values": [{"measurement": "inhibition of PCAF HAT activity", "setting": "[1]", "value": "inhibitory effect"}, {"measurement": "inhibition of p300 HAT activity", "setting": "[2]", "value": "inhibitory effect"}]}
{"molecule": "CC(C)(COP(=O)(O)OP(=O)(O)OC[C@H]1O[C@@H](n2cnc3c(N)ncnc32)[C@H](O)[C@@H]1OP(=O)(O)O)[C@@H](O)C(=O)NCCC(=O)NCCSC(=O)[C@@H](N)CCCCN", "note": "[Lysyl-CoA, lysyl-CoA]", "values": [{"measurement": "proliferation of human melanocytes", "setting": "[3]", "value": "inhibited"}, {"measurement": "senescence of human melanocytes", "setting": "[3]; with expression SA-β-gal", "value": "induced senescence-like growth arrest"}]}
{"molecule": "N[C@@H](CCC(=O)N[C@@H](CSN=O)C(=O)NCC(=O)O)C(=O)O", "note": "[GSNO, S-nitroso-glutathione]", "values": [{"measurement": "expression of GAPDH", "setting": "[4]", "value": "enhanced in a concentration dependent manner"}, {"measurement": "expression of NPM1", "setting": "[4]", "value": "enhanced in a concentration dependent manner"}, {"measurement": "acetylation of GAPDH", "setting": "[5]; 200 μM GSNO, 24 h", "value": "gets acetylated"}, {"measurement": "acetylation of NPM1", "setting": "[5]; 200 μM GSNO, 24 h", "value": "dramatically enhanced"}, {"measurement": "level of H3K14 acetylation", "setting": "[6]", "value": "enhanced"}]}
{"molecule": "CC(=N)NCc1cccc(CN)c1", "note": "[1400 W, N-(3-(Aminomethyl)benzyl)acetamidine]", "values": [{"measurement": "effect on IFNγ-enhanced GAPDH and NPM1 acetylation", "setting": "[5]; 100 μM", "value": "abolished or reduced"}]}
{"molecule": "NPM1: Nucleophosmin, histone chaperone, multifunctional nucleolar protein", "values": [{"measurement": "activation of autoacetylation of p300", "setting": "[7]", "value": "activate"}]}
{"molecule": "COc1cc(C=Cc2cc(C=Cc3ccc(O)c(OC)c3)n(-c3ccc(C(=O)O)cc3)n2)ccc1O", "note": "[CTK7, Hydrazinobenzoylcurcumin]", "values": [{"measurement": "solubility in water", "setting": "[8]", "value": "Insoluble"}]}
{"molecule": "IFNγ: interferon γ, a proinflamatory cytokine that activates iNOS to produce NO (protein, UniProt P01579 24-161, looked up) Interferon gamma: QDPYVKEAENLKKYFNAGHSDVADNGTLFLGILKNWKEESDRKIMQSQIVSFYFKLFKNFKDDQSIQKSVETIKEDMNVKFFNSNKKKRDDFEKLTNYSVTDLNVQRKAIHELIQVMAELSPAAKTGKRKRSQMLFRG", "values": [{"measurement": "GAPDH and NPM1 acetylation", "setting": "[5]; IFNγ 10 ng ml−1, 16 h, NO-dependent", "value": "enhanced"}, {"measurement": "translocation of GAPDH to nucleus", "setting": "[9]", "value": "induce the translocation"}]}
